According to US7763647B2, “Topical solution containing a chromane or chromene derivative” (Laboratories Expanscience, priority 2001, dated 2010):

Assays:
[1] = tested on: actinic erythema induced by UVA+B irradiation; experiment: Reduction of actinic erythema induced by UVA+B irradiation, double blind test with placebo, visual reading; format: in vivo, healthy volunteers; settings: when solubilized beforehand in PEG 300
Description: The placebo (P1) and the active products (P2), (P3) and (P4) were thus used to carry out this test.
Several steps were followed: • Preliminary step: Evaluation of the individual Minimum Erythemal Dose (MEDi). • First step: Application of products P1 to P4 to a 35 cm^2 surface. The quantity applied is exactly 4 mg/cm^2. The zones for applying the products are modified by rotation from one volunteer to another. • Second step: Irradiation of the treated zones and of one untreated zone (control zone) fifteen minutes after application of the products, by positioning the MEDi at the third hole. • Third steps: Visual readings of the erythema 6 and 24 hours after the irradiation. a.) Choice of the Subjects […]
Beforehand, with the same apparatus, the individual MED of each subject was determined on the top of the back. […]
The irradiation times for the treated zones and for the untreated zone are determined so as to place the MEDi at the third hole.
The administered UV doses are calculated with the aid of a calibrated ROBERTSON-BERGER dosimeter equipped with a UVB reading head. The results are expressed directly as values read on the dosimeter and expressed as MED (1 MED=25 mJ/cm^2). […]
A numerical quantification corresponding to the degree of erythema is performed according to the following table: […]

[2] = Tests of solubility of genistein in polyethylene glycols or their ethoxylated homologs (HPLC assay); settings: for Genistein assayed (% by weight in the solution): room temperature, stirred 30 minutes
Description: Tests of Solubility of Genistein in Polyethylene Glycols or Their Ethoxylated Homologs Procedure:
The quantity of genistein used in powdered form is accurately weighed in a 250 ml beaker. A precise quantity of excipient is then added. The mixture is then vigorously stirred (mechanical stirring) at room temperature for 30 minutes. The product is then directly assayed according to the protocol described below.
The assay of genistein is carried out by reverse phase high-performance liquid chromatography (C18 stationary phase—acetic acid/acetonitrile mobile phase) and detection by UV spectrophotometry (absorption maximum of the compound).

[3] = excipient PEG 200, genistein used 12.0% by weight
[4] = excipient PEG 300, genistein used 8.0% by weight
[5] = excipient PEG 300, genistein used 10.0% by weight
[6] = excipient PEG 300, genistein used 12.0% by weight
[7] = excipient PEG 400, genistein used 12.0% by weight
[8] = excipient PEG 600, genistein used 12.0% by weight

O=c1c(-c2ccc(O)cc2)coc2cc(O)cc(O)c12 [Genistein]
Antierythemal activity of genistein [1]: increased
Concentration at which genistein can be incorporated, in soluble form, into PEG 300 ([2]; PEG 300): ~12 % by weight relative to the total weight of the solution
Genistein assayed (% by weight in the solution) ([2]; excipient Laureth 11 (oxyethylenated C12 alcohol), genistein used 12.0% by weight): 9.5 % by weight in the solution
Solubility ([2]; excipient Laureth 11, genistein used 12.0% by weight): high
Genistein assayed (% by weight in the solution) ([2]; excipient Liponic EG1 (ethoxylated glycerol), genistein used 10.0% by weight): 9.1 % by weight in the solution
Solubility ([2]; excipient Liponic EG1, genistein used 10.0% by weight): high
Solubility [2, 3]: high
Genistein assayed (% by weight in the solution) [2, 3]: 10.9 % by weight in the solution
Solubility [2, 4]: high
Genistein assayed (% by weight in the solution) [2, 4]: 7.6 % by weight in the solution
Solubility [2, 5]: high
Genistein assayed (% by weight in the solution) [2, 5]: 9.3 % by weight in the solution
Solubility [2, 6]: high
Genistein assayed (% by weight in the solution) [2, 6]: 11.2 % by weight in the solution
Solubility [2, 7]: high
Genistein assayed (% by weight in the solution) [2, 7]: 10.1 % by weight in the solution
Genistein assayed (% by weight in the solution) ([2]; excipient PEG400 dilaurate (fatty diester of PEG), genistein used 12.0% by weight): 9.5 % by weight in the solution
Solubility ([2]; excipient PEG400 dilaurate, genistein used 12.0% by weight): high
Solubility [2, 8]: high
Genistein assayed (% by weight in the solution) [2, 8]: 10.7 % by weight in the solution
